Test: gradient 5% acetonitrile 3 min, to 50% in 2 min, to 85% in 15 min, held 3 min, 100 µL/min
Settings: column: Zorbax Extend-C18 2.1 x 50 mm; eluents: water / acetonitrile, 0.1% formic acid
Procedure, shortened: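 Pure standards were analyzed in mixtures of ~100 molecules using HPLC coupled to a quadrupole time-of-flight mass spectrometer, in both positive and negative ionization mode. Separation used a Zorbax Extend-C18 column (2.1 × 50 mm, 1.8 μm) at 100 μL/min, with water and acetonitrile each containing 0.1% formic acid. Dead and dwell volumes were 40 μL and 900 μL, and data were collected over 3 months. Retention time was read from computationally picked adduct peaks, each inspected manually.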

| RP-LC retention time | Structure (SMILES) |
| --- | --- |
| 843 s | CC1=C(c2ccc(Cl)cc2)S(=O)(=O)N=C1N1CCCN(C(=O)c2ccsc2)CC1 |
| 854 s | O=C(NC1CCCCCCC1)C1CCCN(S(=O)(=O)c2c[nH]c(C(=O)N3CCCC3)c2)C1 (stereo not drawn) |
| 884 s | Cn1cc2c3c(cccc31)CN(C(=O)c1ccc(C#N)cc1)CC2 |
| 749 s | O=S(=O)(c1ccc(Cl)cc1)N1CCN(c2cnn3c(C4CC4)nnc3c2)CC1 |
| 603 s | Cc1ccnc(NS(=O)(=O)c2ccc(NC(=O)C3=COCCO3)cc2)n1 |
| 656 s | N#Cc1cccc(-c2cn3c(n2)N(C(=O)c2ccccn2)CCC3)c1 |
| 743 s | COc1ccc(N2CCN(C(=O)Cn3ccc4c(SCc5ccccc5)nccc43)CC2)cc1 |
| 759 s | CCOc1ccc(NC(=O)N2CCC(n3c(-c4ccco4)nc4cccnc43)C2)cc1 (stereo not drawn) |
| 800 s | CCC(=O)N1CC(c2nc(-c3ccc(F)cc3)no2)C2(CCOCC2)C1 (stereo not drawn) |
| 683 s | CC1CCN(c2ncc(C(=O)O)c(-c3ccncc3)n2)CC1 |
| 1070 s | Cc1cc(F)ccc1N1C(=O)CN(S(C)(=O)=O)CC1(C)C(=O)NC1CCCCCCC1 (stereo not drawn) |
| 740 s | CCOCCCNC(=O)N1CCCC(C)(C(=O)NCc2ccc(C)cc2)C1 (stereo not drawn) |
| 938 s | Cn1c(=O)c(N2CCN(C(=O)Cc3ccc(Br)cc3)CC2)nc2cccnc21 |
| 838 s | Cc1ccc(Cl)cc1N1C(=O)CN(S(C)(=O)=O)CC1(C)C(=O)NC1CCCC1 (stereo not drawn) |
| 1250 s | Fc1ccc(-c2noc(-c3nnn4c3COC(c3ccc(Cl)cc3)C4)n2)cc1 (stereo not drawn) |
| 640 s | COC(=O)c1c(-c2cccc(F)c2)noc1NCCN1CCCC1 |
| 1020 s | O=C(NCCc1csc(-c2ccccc2)n1)C1CCN(C(=O)c2ccc(F)c(Cl)c2)CC1 |
| 675 s | Cc1cccnc1NC(=O)C1CCN(S(=O)(=O)c2cc(C(=O)N3CCCCCC3)cs2)CC1 |
| 1090 s | Cc1ccc(C)c(Cn2nc3ccc(S(=O)(=O)N4CCCCCC4)cn3c2=O)c1 |
| 598 s | Cc1ccc2c(Nc3cccc(C#N)c3)c(C(=O)N3CCCCC3)cnc2n1 |
| 745 s | COc1ccc(Cc2nnc(C3CCN(C(=O)Cc4cccs4)CC3)s2)cc1 |

| RP-LC retention time | Structure (SMILES) |
| --- | --- |
| 610 s | CCN1CCN(c2cc(C(=O)O)c3cc(NC(=O)c4ccc(Br)cc4)ccc3n2)CC1 |
| 576 s | COc1ccc(C(=O)N2CCN(C(=O)c3ccco3)CC2)nn1 |
| 907 s | COc1ccc(S(=O)(=O)N2C[C@@H]3C[C@H](NC(=O)c4ccccc4)[C@H]2C3)cc1Cl |
| 785 s | Cc1nc2cc(N3CC(C(=O)Nc4cccc(C)c4C)CC3=O)ccc2o1 (stereo not drawn) |
| 976 s | COc1ccccc1CNC(=O)c1nc2cccnc2n(CC(C)C)c1=O |
| 669 s | CC(C)(C)NC(=O)N1CCN(c2cc(-c3cccc(F)c3)ncn2)CC1 |
| 1200 s | COc1cccc(S(=O)(=O)N2CCc3nc(-c4ccc(Cl)cc4)ncc3C2)c1 |
| 738 s | O=C(NCc1nnnn1C1CCCCC1)c1ccc(Br)o1 |
| 933 s | COCCCNC(=O)N1CCCCCC1c1ccccc1Cl (stereo not drawn) |
| 847 s | CC1(C(=O)NCc2ccc(F)cc2)Cn2cnc(C(=O)Nc3cc(F)ccc3F)c2C(=O)N1C1CC1 (stereo not drawn) |
| 635 s | COc1ccc(NC(=O)N2CCC(c3nc(C(=O)N(C)C)c(C)o3)CC2)c(OC)c1 |
| 857 s | O=C(CN1C(=O)CCCc2cc(S(=O)(=O)N3CCCC3)ccc21)Nc1ccc(F)cc1Cl |
| 821 s | COc1ccc(NC(=O)NC2CCN(c3ccc(C)c(C)c3)C2=O)cc1 (stereo not drawn) |
| 797 s | COc1ccc(C2Cn3cnc(C(=O)N4CCC(C(=O)NC5CCCCCC5)CC4)c3CO2)cc1 (stereo not drawn) |
| 644 s | CCc1ccccc1NC(=O)C(=O)c1cn(CC(=O)N2CCCC2)c2ccccc12 |
| 888 s | Cc1cccc(C(=O)Nc2ccc(N3CCN(C4CCCC4)C3=O)nc2)c1 |
| 1100 s | CCCc1ccc(S(=O)(=O)N2CCC(C(=O)NCCc3csc(-c4ccccc4)n3)CC2)cc1 |
| 680 s | CC(C)NC(=O)CN1C(=O)COc2ccc(C(=O)N3CCCCCC3)cc21 |
| 717 s | Cc1ccc(CS(=O)(=O)N2CCC(CN3CCCC(C)C3)CC2)cc1C (stereo not drawn) |
| 955 s | CCOc1ccccc1NC(=O)N1CCC2(CC1)NC(=O)c1ccc(Cl)cc1N2CC |

Continued, compound first:

| Structure (SMILES) | RP-LC retention time |
| --- | --- |
| Cc1ccccc1CNS(=O)(=O)c1c(C)sc(C)c1-c1n[nH]c(C)c1C | 1060 s |
| COc1cc([C@H]2c3cc4c(cc3[C@@H](O)[C@H](CO)[C@H]2C(=O)N2CCCc3ccccc32)OCO4)cc(OC)c1OC | 734 s |
| COCCC(=O)N1CCC2(CCC2O)CC1 (stereo not drawn) | 593 s |
| CC(=O)c1ccc(NC(=O)c2cnc(-c3ccccc3)nc2-c2ccncc2)cc1 | 795 s |
| Cc1ccc(N2CC(c3noc(-c4cccc(OC(F)(F)F)c4)n3)CC2=O)cc1 (stereo not drawn) | 1160 s |
| COc1cccc(-n2c(=O)c3sccc3n(Cc3nc(-c4ccc(Cl)c(F)c4)no3)c2=O)c1 | 1060 s |
| CC1=NN(c2cccc(C(=O)O)c2)C(=O)/C1=C\c1ccc(-c2ccc(Cl)c(C(=O)O)c2)o1 | 1050 s |
| O=C(CN1C(=O)c2ccccc2C1=O)N1CCc2ccccc2C1 | 755 s |
| CCn1cc(CC(=O)NC(C)c2ccc(F)cc2)c2cccnc21 (stereo not drawn) | 732 s |
| Cc1noc(CNC(=O)CN(C)c2nc3c(F)cccc3s2)n1 | 667 s |
| COc1cccc(CNC(=O)Cn2cccc2-c2nnc(-c3ccccc3)o2)c1 | 895 s |
| COc1ccccc1Oc1c(C)oc2cc(OCC(=O)N[C@H](C)C(=O)O)ccc2c1=O | 710 s |
| O=C(CCCSc1ccc(NC(=O)c2cccs2)nn1)NCc1ccco1 | 714 s |
| CCn1c(CCNC(=O)c2ccc(Cl)cc2)nc2cccnc21 | 653 s |
| Cc1cc(C)c2c(SC(C)C)nc(N)nc2n1 | 676 s |
| COc1cccc(Nc2nc(-c3ccc(I)cc3)cs2)c1 | 1270 s |
| Fc1ccccc1N1CCN(c2ncnc3sc4c(c23)CCC4)CC1 | 1150 s |
| Cc1ccc(-c2noc(Cn3ccn4nc(-c5ccc6c(c5)OCO6)cc4c3=O)n2)cc1 | 1050 s |
| Cc1ccc(NC(=O)Cc2nnc(-c3cnccn3)o2)cc1F | 714 s |
| CCCCS(=O)(=O)c1cc2c(cc1NC(=O)Cc1ccc(F)cc1)n(C)c(=O)n2C | 847 s |
| CCCn1c(=O)c(C)nc2cc(-c3noc(-c4cc(OC)c(OC)c(OC)c4)n3)ccc21 | 1110 s |
| CCS(=O)(=O)c1ccc2c(c1)N(Cc1nc(-c3ccc(OC)c(OC)c3)no1)C(=O)CO2 | 817 s |
| COc1ccccc1CC(=O)Nc1ccc2c(c1)CCC(=O)N2 | 670 s |
| Cc1cc(C(=O)NCCn2ncc3c(=O)n(Cc4ccc(F)cc4)cnc32)c(C)o1 | 705 s |

| Structure (SMILES) | RP-LC retention time |
| --- | --- |
| CN1CCN(CCNC(=O)CCCn2c(=O)c3cccn3c3ccc(F)cc32)CC1 | 588 s |
| Cc1cc(C)cc(NS(=O)(=O)c2c(C)sc(C)c2-c2cc(C(F)(F)F)on2)c1 | 1240 s |
| COc1cc(OC)c(NC(=O)CN2C(=O)CN(C)C(=O)c3ccccc32)cc1Cl | 719 s |
| CC(C)n1cc(C2=CCN(S(=O)(=O)c3ccccc3)CC2)c2cccnc21 | 702 s |
| COc1ccccc1-c1nc(Cn2ccnc2)no1 | 580 s |
| CN(CC(=O)Nc1ccc2c(c1)OCO2)c1nc2c(F)cccc2s1 | 828 s |
| CCn1nccc1-c1cccc(-c2noc(CNC(=O)Cc3ccc(Cl)cc3)n2)c1 | 922 s |
| CCCN(C)c1nccn2c(=O)n(CC(=O)Nc3ccc(Cl)cc3F)nc12 | 735 s |
| Cc1ccc(OCC(=O)NCc2ccc(F)cc2)nn1 | 607 s |
| CCCS(=O)(=O)c1nc2ccc(NS(=O)(=O)c3ccccc3F)cc2s1 | 882 s |
| Cc1ccc(Cl)cc1NC(=O)C1CC(=O)N(CCc2c[nH]c3ccc(F)cc23)C1 (stereo not drawn) | 875 s |
| COCc1cn(C2CN(C(=O)Cc3c[nH]c4ccccc34)C2)nn1 | 634 s |
| CCN(Cc1ccccc1)C(=O)CN1C(=O)N(c2cc(C)cc(C)c2)C2CS(=O)(=O)CC21 (stereo not drawn) | 893 s |
| Cc1ncoc1C(=O)N[C@@H]1CN(S(C)(=O)=O)C[C@H]1CN(C)C | 516 s |
| CCOc1ccc(-n2cc(-c3nc(-c4cccc(OC)c4)no3)c3ccccc3c2=O)cc1 | 1390 s |
| COc1ccccc1CCC(=O)Nc1ccc2c(c1)Sc1ncccc1C(=O)N2C(C)C | 922 s |
| CCCN(CC1CCOC1)C(=O)Nc1ccccc1Cl (stereo not drawn) | 846 s |
| CC1(C)Cc2cccc(OCC(=O)N3CCN(CCn4cccn4)CC3)c2O1 | 583 s |
| COc1ccc(-c2cn3c(CC(=O)Nc4cc(C)ccc4C)csc3n2)cc1OC | 746 s |
| Cc1ccc(C(=O)NCc2ccc3c(c2)ncn3C)c(C)c1 | 611 s |
| Cc1cccc(S(=O)(=O)N2CCC(C)(C(=O)NCc3ccccc3)CC2)c1 | 935 s |
| CC1(C)CC(O)CC(C)(C)N1CC(O)COCCOc1ccc(F)cc1 (stereo not drawn) | 565 s |
| Cn1c(CCCC(=O)O)nc2cc(N(CCCl)CCCl)ccc21 | 747 s |
